From PMC5106240 (Drug Design, Development and Therapy, 2016) come the findings set out here.

Format in all cases: in vivo, Wistar rats
In test [1] the test system is PTZ-induced convulsions. Briefly: PTZ-induced seizure model. To be noted: rats.
Test [2] relates to MES-induced convulsions. In words: MES-induced seizure model. To be noted: rats, 10 mg/kg IP, vs saline-treated group.
Test [3] relates to STR-induced convulsions. In words: STR-induced seizure model. As to conditions: rats, 10, 20, 30 minutes observation.
The mark [4] stands for this setting: 10 mg/kg IP, 30 minutes before PTZ 60 mg/kg IP, 10, 20, 30 minutes observation.

On to `O=C1NC(=O)C(c2ccccc2)(c2ccc(OCCCN3CCCCC3)cc2)N1` (centres unmarked) [Compound 6, 5-Phenyl-5-(4-(3-(piperidin-1-yl)propoxy)phenyl) imidazolidine-2,4-dione], for which the “Protective effect on PTZ-induced convulsions (convulsion score)” value was “full protection” in test [1] (setting [4]); “significant and full protective effect” in test [1] (10 and 15 mg/kg IP, 10, 20, 30 minutes). Further, the “Protective effect on MES-induced convulsions (duration of THLE)” value (from here on “Protective effect … (duration of THLE)”) in test [2] is given as “failed to provide significant protection”.
In the case of `O=C1NC(=O)C(c2ccccc2)(c2ccccc2)N1` [PHT, Phenytoin], the “Protective effect … (duration of THLE)” value in test [2] is recorded as “fully”.
With `Clc1ccc(CCCOCCCN2CCCCC2)cc1` [PIT, pitolisant], the “Protective effect on PTZ-induced convulsions (convulsion score)” value in test [1] (setting [4]) is given as “failed to provide protection”. In addition, the “Protective effect … (duration of THLE)” value in test [2] is recorded as “moderately protected”. In addition, the “Protective effect on STR-induced convulsions (convulsion score)” value in test [3] (10 mg/kg IP, 30 minutes before STR 3.5 mg/kg IP) is listed as “failed to provide protection”.
For the compound `C[C@@H](N)Cc1cnc[nH]1` [RAMH, R-(α)-methyl-histamine], in test [1] (setting [4]), the “Protective effect on PTZ-induced convulsions (convulsion score)” value is “did not affect convulsion score”. For the same compound, the “Protective effect … (duration of THLE)” value in test [2] is “did not affect MES-induced seizures”.
As to `CCCC(CCC)C(=O)O` [VPA, valproic acid], the “Protective effect on PTZ-induced convulsions (convulsion score)” value in test [1] (100 mg/kg IP, 10, 20, 30 minutes observation) is “significant protection”. In test [3] (300 mg/kg IP), the “Protective effect on STR-induced convulsions (convulsion score)” value is listed as “significant protection”.
